The values that follow come from patent publication US20180179210A1, “Inhibitors of the TEC Kinase Enzyme Family” (Pharmascience Inc., priority 2015, published 2018).

The test system of assay [1] is TMD-8 human activated B cell diffuse large B cell lymphoma cells. The assay can be described thus: TMD-8 survival assay. The format is cell-based. The settings on record: TMD8, TMD-8 cells, 72 h treatment, Cell Titer-Glo. As for the experimental part: BTK inhibitors affect the survival of B-cell lymphomas. TMD-8 human activated B cell diffuse large B cell lymphoma cells were seeded in 96-well plates at a density of 20,000 cells/well in HyClone RPMI supplemented with 10% FBS (Fisher)/1% Penicillin/Streptomycin (HyClone) and incubated at 37° C., 5% CO2. Cells were treated in triplicate with 1,000 nM or 100 nM curves of compounds for 72 h. Cell survival was measured by Cell Titer-Glo Luminescent Assay (Promega). EC50 values (50% proliferation in the presence of compound as compared to vehicle treated controls) were calculated from dose response compound curves using GraphPad Prism Software.
Background: Cellular ATP, detected with luciferase, serves as a proxy for viable cell number.

In assay [2] the target is T1, human BTK kinase (hBTK) (Homo sapiens, UniProt Q06187).
T1 construct: purchased Eurofins Pharma Discovery Services UK Limited (contract assay, Kinase Profiler)
T1 sequence (Q06187 whole entry): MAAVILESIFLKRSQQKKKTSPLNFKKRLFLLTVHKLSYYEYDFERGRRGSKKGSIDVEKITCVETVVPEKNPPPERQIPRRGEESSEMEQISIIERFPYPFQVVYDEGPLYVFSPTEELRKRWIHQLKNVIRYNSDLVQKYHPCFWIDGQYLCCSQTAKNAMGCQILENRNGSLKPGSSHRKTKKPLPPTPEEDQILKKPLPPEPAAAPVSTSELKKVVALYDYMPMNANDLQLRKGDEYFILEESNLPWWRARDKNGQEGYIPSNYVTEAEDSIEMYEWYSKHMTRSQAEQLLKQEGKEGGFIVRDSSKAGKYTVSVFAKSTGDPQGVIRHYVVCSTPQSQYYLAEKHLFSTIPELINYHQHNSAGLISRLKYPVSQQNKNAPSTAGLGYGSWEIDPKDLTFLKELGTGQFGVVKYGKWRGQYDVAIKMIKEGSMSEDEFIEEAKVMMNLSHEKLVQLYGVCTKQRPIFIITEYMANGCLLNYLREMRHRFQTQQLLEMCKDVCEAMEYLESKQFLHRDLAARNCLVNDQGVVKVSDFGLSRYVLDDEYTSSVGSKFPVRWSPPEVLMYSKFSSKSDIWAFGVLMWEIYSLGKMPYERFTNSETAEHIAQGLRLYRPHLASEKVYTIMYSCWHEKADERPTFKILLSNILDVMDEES
The experiment in a line: BTK kinase inhibition assay (Kinase Profiler radiometric protein kinase assay, Eurofins). The assay is classed as biochemical. To be noted: radiometric [γ-33P-ATP] assay, 40 minutes at room temperature, 250 μM substrate. As to the method: In vitro potency of selected compound was defined against human BTK kinase (hBTK) using Kinase Profiler radiometric protein kinase assays performed at Eurofins Pharma Discovery Services UK Limited.
hBTK kinase is diluted in buffer and all compounds were prepared to 50× final assay concentration in 100% DMSO. This working stock of the compound was added to the assay well as the first component in the reaction, followed by the remaining components as detailed in the assay protocol listed above. The reaction was initiated by the addition of the MgATP mix. The kinase reaction was performed at room temperature for 40 minutes in presence of 250 μM substrate, 10 mM MgAcetate, [γ-33P-ATP] (specific activity approx. 500 cpm/pmol, concentration as required) and variable test article concentrations. The ATP concentrations in the assays were with 15 μM of the apparent. The reaction was stopped by the addition of 3% phosphoric acid solution. 10 μL of the reaction is then spotted onto a P30 filtermat and washed three times for 5 minutes in 75 mM phosphoric acid and once in methanol prior to drying and scintillation counting. In addition positive control wells contain all components of the reaction, except the compound of interest; however, DMSO (at a final concentration of 2%) were included in these wells to control for solvent effects as well as blank wells contain all components of the reaction, with a reference inhibitor replacing the compound of interest. This abolishes kinase activity and establishes the base-line (0% kinase activity remaining).

For assay [3], the system named is Splenocytes. The assay can be described thus: Splenic cell proliferation assay (anti-IgM stimulated). The format is cell-based. The settings on record: Splenocyte; CD1 mouse splenocytes, 1 h pre-treatment, 2.5 ug/ml anti-IgM F(ab')2 for 72 h, Cell Titer-Glo; read-out: EC50 (inhibition of splenic cell proliferation). As for the experimental part: Proliferation of splenocytes in response to anti-IgM can be blocked by inhibition of Btk.
Splenocytes were obtained from 6 week old male CD1 mice (Charles River Laboratories Inc.). Mouse spleens were manually disrupted in PBS and filtered using a 70 um cell strainer followed by ammonium chloride red blood cell lysis. Cells were washed, resuspended in Splenocyte Medium (HyClone RPMI supplemented with 10% heat-inactivated FBS, 0.5× non-essential amino acids, 10 mM HEPES, 50 uM beta mercaptoethanol) and incubated at 37° C., 5% CO2 for 2 h to remove adherent cells. Suspension cells were seeded in 96 well plates at 50,000 cells per well and incubated at 37° C., 5% CO2 for 1 h. Splenocytes were pre-treated in triplicate with 10,000 nM curves of Formula 1 compounds for 1 h, followed by stimulation of cell proliferation with 2.5 ug/ml anti-IgM F(ab′)2 (Jackson ImmunoResearch) for 72 h. Cell proliferation was measured by Cell Titer-Glo Luminescent Assay (Promega). EC50 values (50% proliferation in the presence of compound as compared to vehicle treated controls) were calculated from dose response compound curves using GraphPad Prism Software EC50 values are reported in Table 3: […]

What is called IC50 is the concentration that gives 50% inhibition.

`CC#CC(=O)N1CC(Cn2nc(-c3ccc(Oc4cc(F)cc(OCc5cnc(C)nc5)c4)cc3)c3c(N)ncnc32)C1` [Compound 24]: the EC50 in assay [1] came to 0.0206 µM; in assay [3] it was 0.0108 µM. This compound registered an IC50 in assay [2] of 0.026 µM.
The corresponding values for `C=C(F)C(=O)N1CC[C@@H](n2nc(-c3ccc(Oc4cc(F)cc(OCc5cnc(C)nc5)c4)cc3)c3c(N)ncnc32)C1` [Compound 18] are 0.0144 µM, 0.0058 µM and 0.014 µM.
For `CC#CC(=O)N1CCC[C@@H](n2nc(-c3ccc(Oc4cc(F)cc(OCc5cnc(C)nc5)c4)cc3)c3c(N)ncnc32)C1` [Compound 11], the EC50 in assay [1] came out at 0.0131 µM; in assay [3], 0.0015 µM. Also, in assay [2], 0.01 µM corresponded to half-maximal inhibition (IC50).
The corresponding values for `Cc1ncc(COc2cc(F)cc(Oc3ccc(-c4nn(C[C@H]5CCCN5C#N)c5ncnc(N)c45)cc3)c2)cn1` [Compound 1] are 0.0347 µM, 0.0122 µM and 0.076 µM.
For the compound `Cc1ncc(COc2cc(F)cc(Oc3ccc(-c4nn([C@@H]5CCCN(C#N)C5)c5ncnc(N)c45)cc3)c2)cn1` [Compound 8], the EC50 in assay [1] was found to be 0.0135 µM; in assay [3] it was 0.0046 µM. Further, in assay [2], the half-maximal inhibitory concentration (IC50) was determined as 0.011 µM.
Turning to `C=CC(=O)N1CC[C@@H](n2nc(-c3ccc(Oc4cc(F)cc(OCc5cnc(C)nc5)c4)cc3)c3c(N)ncnc32)C1` [Compound 22], the EC50 was 0.0134 µM in assay [1] and 0.0027 µM in assay [3]. In assay [2], this compound displayed an IC50 of 0.006 µM.
The corresponding values for `C=CC(=O)N1CCC[C@@H]1Cn1nc(-c2ccc(Oc3cc(F)cc(OCc4cnc(C)nc4)c3)cc2)c2c(N)ncnc21` [Compound 14] are 0.0138 µM, 0.0025 µM and 0.025 µM.
For `CC#CC(=O)N1CC[C@@H](n2nc(-c3ccc(Oc4cc(F)cc(OCc5cnc(C)nc5)c4)cc3)c3c(N)ncnc32)C1` [Compound 17], the EC50 came out at 0.0145 µM in assay [1] and 0.0069 µM in assay [3]. In addition, in assay [2], the concentration for half-maximal inhibition (IC50) amounted to 0.019 µM.
With `C=CC(=O)N1CCC(n2nc(-c3ccc(Oc4cc(F)cc(OCc5cnc(C)nc5)c4)cc3)c3c(N)ncnc32)CC1` [Compound 25], the EC50 in assay [1] came to 0.0198 µM; in assay [3], 0.0043 µM. This compound also returned a half-maximal inhibitory concentration (IC50) in assay [2] of 0.017 µM.
For the compound `C=C(F)C(=O)N1CCC[C@@H](n2nc(-c3ccc(Oc4cc(F)cc(OCc5cnc(C)nc5)c4)cc3)c3c(N)ncnc32)C1` [Compound 20], the EC50 was 0.0086 µM in assay [1] and 0.002 µM in assay [3]. This compound returned a half-maximal inhibitory concentration (IC50) in assay [2] of 0.006 µM.
As to `C=CC(=O)N(C)[C@H]1C[C@@H](n2nc(-c3ccc(Oc4cc(F)cc(OCc5cnc(C)nc5)c4)cc3)c3c(N)ncnc32)C1` [Compound 31], the results for the EC50 in assay [1] and in assay [3] were 0.0089 µM and 0.0014 µM, respectively. The half-inhibitory concentration (IC50) in assay [2] was 0.01 µM.
Turning to `C#CC(=O)N1CCC[C@@H]1Cn1nc(-c2ccc(Oc3cc(F)cc(OCc4cnc(C)nc4)c3)cc2)c2c(N)ncnc21` [Compound 13], the results for the EC50 in assay [1] and in assay [3] were 0.0793 µM and 0.0487 µM, respectively. Moreover, the 50% inhibitory concentration (IC50) in assay [2] amounted to 0.035 µM.
Turning to `C=CS(=O)(=O)N1CCC[C@@H](n2nc(-c3ccc(Oc4cc(F)cc(OCc5cnc(C)nc5)c4)cc3)c3c(N)ncnc32)C1` [Compound 21], the results for the EC50 in assay [1] and in assay [3] were 0.0645 µM and 0.0329 µM, respectively. In assay [2], this compound gave a 50% inhibitory concentration (IC50) of 0.013 µM.
The corresponding values for `Cc1ncc(COc2cc(F)cc(Oc3ccc(-c4nn([C@@H]5CCCN(C(=O)/C=C/CN(C)C)C5)c5ncnc(N)c45)cc3)c2)cn1` [Compound 16] are 0.0121 µM, 0.0041 µM and 0.007 µM.
Regarding `Cc1ncc(COc2cc(F)cc(Oc3ccc(-c4nn(C5CCN(C#N)CC5)c5ncnc(N)c45)cc3)c2)cn1` [Compound 33], the EC50 in assay [1] was greater than 0.1 µM; in assay [3] it was 0.0473 µM.
Take `C=CC(=O)N1CC2(CC(n3nc(-c4ccc(Oc5cc(F)cc(OCc6cnc(C)nc6)c5)cc4)c4c(N)ncnc43)C2)C1` [Compound 34]: the EC50 in assay [3] was found to be 0.0015 µM.
Consider `C=C(F)C(=O)N[C@H]1C[C@@H](n2nc(-c3ccc(Oc4cc(F)cc(OCc5cnc(C)nc5)c4)cc3)c3c(N)ncnc32)C1` [Compound 35], for which the EC50 in assay [3] turned out to be 0.001 µM.
